Measurements reported in article PMC8948292, “Combining PEGylated mito-atovaquone with MCT and Krebs cycle redox inhibitors as a potential strategy to abrogate tumor cell proliferation” (Scientific Reports, 2022).
pIC50: −log10 of the molar value. Where two headings read alike, the source gives them in different places.

Experiments:
[1] = test system: mitochondrial respiration (OCR) in intact MiaPaCa-2 cells; assay: Intact cell mitochondrial respiration (basal OCR), Seahorse XF-96; format: cell-based, human
Experimental: (§1) Mitochondrial oxygen consumption was measured using the Seahorse XF-96 Extracellular Flux Analyzer (Agilent, North Billerica, MA)[3],[33],[67],[68]. To determine the intact cell mitochondrial function of MiaPaCa-2 cells in response to Mito-PEG-ATO analogs, we used the bioenergetic function assay previously described[2],[3]. […] From these measurements, indices of mitochondrial function were determined as previously described[2],[3]. For mitochondrial complex activities assays, after cells were treated with Mito-PEG-ATO analogs for 24 h, the OCR-based assessment of mitochondrial complex activities was carried out on acutely permeabilized cells in the presence of different mitochondrial substrates, i.e., pyruvate/malate for complex I and duroquinol for complex III[3],[32],[34],[69]. Rotenone, malonate, and antimycin A (Sigma-Aldrich, St. Louis, MO) were used as specific inhibitors of mitochondrial complexes I, II, and III, respectively. Briefly, cells that were intact after treatments were immediately permeabilized using the Seahorse XF Plasma Membrane Permeabilizer (Agilent). The mitochondrial complex I-induced OCR was assayed in mannitol and sucrose buffer[69] containing 10 mM pyruvate and 1.5 mM malate (substrates for complex I) and 10 mM malonate (which inhibits complex II activities). The mitochondrial complex III-driven OCR was assayed in a mannitol and sucrose buffer containing 0.5 mM duroquinol (substrate for complex III) as well as 1 µM rotenone and 10 mM malonate (which inhibit both complex I and II activities). The IC50 values were determined as previously reported.

[2] = target: mitochondrial complex III (MiaPaCa-2 cells) (Homo sapiens, UniProt P00156); assay: Complex III-dependent oxygen consumption in permeabilized cells, Seahorse XF-96; format: cell-based
Experimental: as §1

[3] = test system: MiaPaCa-2 cells; assay: Cell proliferation (cell confluence), IncuCyte Live-Cell Analysis System; format: cell-based, human; settings: for pIC50: Homo sapiens
Experimental: The following cell lines were obtained from the American Type Culture Collection (Manassas, VA), where they were regularly authenticated: MiaPaCa-2 (ATCC Cat# CRL-1420, human pancreatic cancer cells), U87MG (ATCC Cat# HTB-14, human brain cancer cells), A549 (ATCC Cat# CCL-185, lung cancer cells), and HCT-116 (ATCC Cat# CCL-247, colon cancer cells). All cell lines were grown at 37 °C in 5% carbon dioxide. MiaPaCa-2 cells were maintained in Dulbecco's Modified Eagle Medium (Thermo Fisher Scientific, Waltham, MA; Cat# 11965) supplemented with 10% fetal bovine serum. U87MG, A549, and HCT-116 cells were maintained in RPMI 1640 medium (Thermo Fisher Scientific, Cat# 11875), supplemented with 10% fetal bovine serum. All cells were stored in liquid nitrogen and used within 20 passages after thawing.
The IncuCyte Live-Cell Analysis System was used to monitor cell proliferation[3],[33],[67]. As shown in previous publications[3],[67], this imaging system is probe-free and noninvasive, and enables continuous monitoring of cell confluence over several days. The increase in the percentage of cell confluence was used as a surrogate marker of cell proliferation. In a 96-well plate, cells were plated at 1,000 cells per well in triplicates and left to adhere overnight. Cells were then treated with Mito-PEG-ATO analogs, and the cell confluency was recorded over several days in the IncuCyte Live-Cell Analysis System.

[4] = test system: MiaPaCa-2 cells; assay: Intracellular oxidants: HPLC of hydroethidine (HE) oxidation products; format: cell-based, human; settings: 24 h, with Mito-PEG5-ATO 0.05 µM, AZD-3965 200 µM or CPI-613 200 µM
Experimental: Hydroethidine (HE) or dihydroethidium was used as a fluorogenic probe to assess the cellular generation of superoxide and other peroxidatic oxidants[36],[37]. Cells were treated for 24 h with Mito-PEG5-ATO alone or in combination with AZD-3965 or CPI-613, followed by 1 h incubation with HE (10 µM). Cells were harvested and the cell pellet stored at − 80 °C until the day of high-performance liquid chromatography (HPLC) analysis. Sample preparation and HPLC analysis were performed as previously reported[32],[36]. 2-OH-E^+ was used as a specific marker for superoxide, and E^+-E^+ was used as a specific marker for intracellular one-electron oxidants[36],[37].
HE was purchased from Invitrogen (Carlsbad, CA). Stock solutions (20 mM and 5 mM, respectively) were prepared in deoxygenated DMSO (dimethyl sulfoxide) and stored at − 80 °C until use. Ethidium cation (bromide salt) was purchased from Sigma-Aldrich. The hydroxylated oxidation products from HE (2-OH-E^+) were prepared by reacting the probes with Fremy’s salt as previously described in detail[70],[71]. The dimeric products were prepared by reacting the probes with excess potassium ferricyanide, as detailed elsewhere. Synthesized standards of all oxidation products of HE were purified by HPLC. HPLC-based measurements of HE and its oxidation products were performed using an Agilent 1100 system equipped with absorption and fluorescence detectors and refrigerated autosampler (4 °C). The samples (50 µL) were injected into a reverse phase column (Phenomenex, Kinetex C18, 100 mm × 4.6 mm, 2.6 µm) equilibrated with 20% acetonitrile and 80% water containing 0.1% trifluoroacetic acid. The compounds were eluted by increasing the content of acetonitrile from 20 to 56% over 4.5 min at a flow rate of 1.5 mL/min. The absorption detector was used to measure 3,8-diamino-6-phenylphenanthridine (at 290 nm; retention time: 2.5 min), HE-E^+ (at 290 nm; retention time: 4.1 min), E^+-E^+ (at 290 nm; retention time: 4.3 min), and HE (at 370 nm; retention time: 1.6 min). A fluorescence detector (initial excitation at 358 nm and emission at 440 nm) was used to monitor HE (when present at low concentrations). At 2.3 min after injection, the fluorescence parameters were changed (excitation at 490 nm and emission at 567 nm) for sensitive detection of 2-OH-E^+ (retention time: 3.2 min) and E^+ (retention time: 3.3 min).

Sequence of mitochondrial complex III (MiaPaCa-2 cells) (P00156 whole entry): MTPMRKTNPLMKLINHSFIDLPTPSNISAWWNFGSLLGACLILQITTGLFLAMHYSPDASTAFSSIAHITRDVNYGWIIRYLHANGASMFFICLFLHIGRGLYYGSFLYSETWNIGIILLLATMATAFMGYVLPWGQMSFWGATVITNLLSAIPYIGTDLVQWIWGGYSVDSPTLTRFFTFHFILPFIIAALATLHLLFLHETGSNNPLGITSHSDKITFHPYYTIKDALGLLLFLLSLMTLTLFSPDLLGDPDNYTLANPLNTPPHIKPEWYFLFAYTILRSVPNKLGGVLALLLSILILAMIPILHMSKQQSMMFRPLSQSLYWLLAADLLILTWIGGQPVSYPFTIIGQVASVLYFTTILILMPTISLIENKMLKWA
Sequence of mitochondrial complex III (MiaPaCa-2 cells) (P47985 whole entry partner): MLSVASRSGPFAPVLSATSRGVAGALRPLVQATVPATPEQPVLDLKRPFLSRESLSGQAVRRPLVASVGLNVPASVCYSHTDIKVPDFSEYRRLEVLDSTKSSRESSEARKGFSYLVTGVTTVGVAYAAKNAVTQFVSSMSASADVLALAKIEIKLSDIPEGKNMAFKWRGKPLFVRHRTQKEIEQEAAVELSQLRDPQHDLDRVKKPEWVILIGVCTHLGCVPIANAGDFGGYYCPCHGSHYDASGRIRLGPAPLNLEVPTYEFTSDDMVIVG

Compound: O=C1C(OCCOCCOCCOCCOCCOCCOCCOCCOCC[P+](c2ccccc2)(c2ccccc2)c2ccccc2)=C([C@H]2CC[C@H](c3ccc(Cl)cc3)CC2)C(=O)c2ccccc21.[Br-] [Mito-PEG9-ATO, (26-((3-(trans-4-(4-chlorophenyl)cyclohexyl)-1,4-dioxo-1,4-dihydronaphthalen-2-yl)oxy)-3,6,9,12,15,18,21,24-octaoxahexacosyl)triphenylphosphonium bromide]
- OCR (pmol/min/µg protein) ([1]; 0.01 µM, 24 h treatment, intact MiaPaCa-2 cells, baseline OCR, mean, n=4): 13.41 pmol/min/µg protein
- OCR (basal, intact cell mitochondrial respiration) ([1]; 0.03 µM, 24 h treatment, intact MiaPaCa-2 cells, mean, n=4): 12.24 pmol/min/µg protein
- OCR (basal, intact cell mitochondrial respiration) ([1]; 0.1 µM, 24 h treatment, intact MiaPaCa-2 cells, mean, n=4): 7.60 pmol/min/µg protein
- OCR (basal, intact cell mitochondrial respiration) ([1]; 0.2 µM, 24 h treatment, intact MiaPaCa-2 cells, mean, n=4): 3.64 pmol/min/µg protein
- OCR (basal, intact cell mitochondrial respiration) ([1]; 0.3 µM, 24 h treatment, intact MiaPaCa-2 cells, mean, n=4): 1.87 pmol/min/µg protein
- OCR (basal, intact cell mitochondrial respiration) ([1]; 0.4 µM, 24 h treatment, intact MiaPaCa-2 cells, mean, n=4): 1.43 pmol/min/µg protein
- OCR (basal, intact cell mitochondrial respiration) ([1]; 0.5 µM, 24 h treatment, intact MiaPaCa-2 cells, mean, n=4): 1.22 pmol/min/µg protein
- OCR (basal, intact cell mitochondrial respiration) ([1]; 1 µM, 24 h treatment, intact MiaPaCa-2 cells, mean, n=4): 1.18 pmol/min/µg protein
- OCR (basal, intact cell mitochondrial respiration) ([1]; 3 µM, 24 h treatment, intact MiaPaCa-2 cells, mean, n=4): 0.96 pmol/min/µg protein
- OCR (basal, intact cell mitochondrial respiration) ([1]; 5 µM, 24 h treatment, intact MiaPaCa-2 cells, mean, n=4): 0.01 pmol/min/µg protein
- pIC50 ([1]; Homo sapiens, MIA PaCa-2, 24 h, read-out: IC50, inhibition of basal OCR in intact cells): 6.96
- Complex III activity (OCR, % of control) ([2]; 0.003 µM): 101.6 % of control
- Complex III activity (OCR, % of control) ([2]; 0.01 µM): 95.6 % of control
- Complex III activity (OCR, % of control) ([2]; 0.03 µM): 96.5 % of control
- Complex III activity (OCR, % of control) ([2]; 0.05 µM): 100.1 % of control
- Complex III activity (OCR, % of control) ([2]; 0.1 µM): 95.3 % of control
- Complex III activity (OCR, % of control) ([2]; 0.2 µM): 93.6 % of control
- Complex III activity (OCR, % of control) ([2]; 0.3 µM): 92.1 % of control
- Complex III activity (OCR, % of control) ([2]; 0.4 µM): 72.1 % of control
- Complex III activity (OCR, % of control) ([2]; 0.5 µM): 48.1 % of control
- Complex III activity (OCR, % of control) ([2]; 0.75 µM): 16.6 % of control
- Complex III activity (OCR, % of control) ([2]; 1 µM): 4.7 % of control
- pIC50 ([2]; MiaPaCa-2 cells, 24 h treatment, antimycin A-inhibitable OCR, read-out: IC50, complex III-induced oxygen consumption (Complex III activity)): 6.30
- pIC50 ([3]; MIA PaCa-2, read-out: IC50, inhibition of cell proliferation): 6.80
- Cell confluence (% of control) ([3]; MiaPaCa-2 cells, 0.01 µM, control ~90% confluence): 99.63 % of control
- Cell confluence (% of control) ([3]; MiaPaCa-2 cells, 0.03 µM, control ~90% confluence): 99.03 % of control
- Cell confluence (% of control) ([3]; MiaPaCa-2 cells, 0.1 µM, control ~90% confluence): 81.02 % of control
- Cell confluence (% of control) ([3]; MiaPaCa-2 cells, 0.15 µM, control ~90% confluence): 60.68 % of control
- Cell confluence (% of control) ([3]; MiaPaCa-2 cells, 0.2 µM, control ~90% confluence): 25.97 % of control
- Cell confluence (% of control) ([3]; MiaPaCa-2 cells, 0.25 µM, control ~90% confluence): 14.32 % of control
- Cell confluence (% of control) ([3]; MiaPaCa-2 cells, 0.3 µM, control ~90% confluence): 10.81 % of control
- Cell confluence (% of control) ([3]; MiaPaCa-2 cells, 0.4 µM, control ~90% confluence): 7.81 % of control
- Cell confluence (% of control) ([3]; MiaPaCa-2 cells, 0.5 µM, control ~90% confluence): 5.89 % of control
- Cell confluence (% of control) ([3]; MiaPaCa-2 cells, 1 µM, control ~90% confluence): 4.84 % of control
- Cell confluence (% of control) ([3]; MiaPaCa-2 cells, 5 µM, control ~90% confluence): 3.30 % of control

Compound: O=C(O)CCCCC(CCSCc1ccccc1)SCc1ccccc1 (stereo not shown) [CPI-613, reference compound]
- Intracellular oxidant-induced HE-derived products, in combination with Mito-PEG5-ATO [4]: modest and additive increase
- pIC50 ([3]; MIA PaCa-2, MiaPaCa-2 cells, inhibitor alone, control ~90% confluence, read-out: IC50 (cell proliferation) without Mito-PEG5-ATO): 3.71
- Inhibition of cell proliferation, alone ([3]; MiaPaCa-2 cells, 200 µM): only moderately inhibited cell proliferation
- Inhibition of cell proliferation in combination with Mito-PEG5-ATO (combination index) ([3]; MiaPaCa-2 cells, combined with Mito-PEG5-ATO): synergistically inhibited cell proliferation
- % changes of IC50 with vs without Mito-PEG5-ATO ([3]; MiaPaCa-2 cells, heat map Fig. 7d): 38.6%
